Drawing on PMC8880564, “Design, Synthesis, and Biological Evaluation of a Novel VEGFR-2 Inhibitor Based on a 1,2,5-Oxadiazole-2-Oxide Scaffold with MAPK Signaling Pathway Inhibition” (Pharmaceuticals, 2022), this text covers activity for six compounds.

Assay in all cases: NCI-60 one-dose SRB screening
What all share (type): cell-based

The subject of one assay is BT-549. Conditions: Homo sapiens, BT-549, Breast Cancer, 10 µM one dose, 48 h, read-out: growth percentage.
In another assay the test system is SN12C. Conditions: Homo sapiens, Renal Cancer, 10 µM one dose, 48 h, read-out: growth percentage.
Another assay relates to SK-MEL-2. Conditions: Homo sapiens, SK-MEL-2, Melanoma, 10 µM one dose, 48 h, read-out: growth percentage.
Another assay concerns U251. To be noted: Homo sapiens, U-251, U251, CNS Cancer, 10 µM one dose, 48 h, read-out: growth percentage.
For a further assay, the system named is UO-31. Conditions: Homo sapiens, UO-31, Renal Cancer, 10 µM one dose, 48 h, read-out: growth percentage.
Another assay relates to OVCAR-5. To be noted: Homo sapiens, OVCAR-5, Ovarian Cancer, 10 µM one dose, 48 h, read-out: growth percentage.
The next assay deals with M14. Conditions: Homo sapiens, M14, Melanoma, 10 µM one dose, 48 h, read-out: growth percentage.
The test system of a further assay is SK-MEL-28. Conditions: Homo sapiens, SK-MEL-28, Melanoma, 10 µM one dose, 48 h, read-out: growth percentage.
The subject of another assay is PC-3. Conditions: Homo sapiens, PC-3, Prostate Cancer, 10 µM one dose, 48 h, read-out: growth percentage.
For another assay, the system named is MOLT-4. To be noted: Homo sapiens, MOLT-4, Leukemia, 10 µM one dose, 48 h, read-out: growth percentage.
The next assay has as its system HL-60(TB). To be noted: Homo sapiens, Leukemia, 10 µM one dose, 48 h, read-out: growth percentage.
The next assay relates to NCI-H226. Conditions: Homo sapiens, NCI-H226, Non-Small Cell Lung Cancer, 10 µM one dose, 48 h, read-out: growth percentage.
A further assay relates to SNB-19. To be noted: Homo sapiens, SNB-19, CNS Cancer, 10 µM one dose, 48 h, read-out: growth percentage.
In the next assay the test system is HCT-15. To be noted: Homo sapiens, HCT-15, Colon Cancer, 10 µM one dose, 48 h, read-out: growth percentage.
A further assay concerns SF-268. Conditions: Homo sapiens, SF-268, CNS Cancer, 10 µM one dose, 48 h, read-out: growth percentage.
For another assay, the system named is KM12. Conditions: Homo sapiens, KM12, Colon Cancer, 10 µM one dose, 48 h, read-out: growth percentage.
For a further assay, the system named is OVCAR-4. Conditions: Homo sapiens, OVCAR-4, Ovarian Cancer, 10 µM one dose, 48 h, read-out: growth percentage.
The next assay deals with SF-539. Conditions: Homo sapiens, SF-539, CNS Cancer, 10 µM one dose, 48 h, read-out: growth percentage.
The next assay relates to HT29. To be noted: Homo sapiens, HT-29, HT29, Colon Cancer, 10 µM one dose, 48 h, read-out: growth percentage.
A further assay relates to 786-0. Conditions: Homo sapiens, 786-0, Renal Cancer, 10 µM one dose, 48 h, read-out: growth percentage.
The next assay concerns OVCAR-8. Conditions: Homo sapiens, OVCAR-8, Ovarian Cancer, 10 µM one dose, 48 h, read-out: growth percentage.
For a further assay, the system named is SR. To be noted: Homo sapiens, Leukemia, 10 µM one dose, 48 h, read-out: growth percentage.

The structures appear in SMILES notation.

As to `Cc1nc(Nc2ccc(OCc3c(-c4ccccc4)no[n+]3[O-])cc2)c2cnn(-c3ccc(Br)cc3)c2n1` [6f, 3-((4-((1-(4-bromophenyl)-6-methyl-1H-pyrazolo[3,4-d]pyrimidin-4-yl)amino)phenoxy)methyl)-4-phenyl-1,2,5-oxadiazole 2-oxide], the activity at 10 µM amounted to 94.5% in the assay with BT-549; 94.8% in the assay with SN12C; 114% in the assay with SK-MEL-2; 99% with U251; 82.7% with UO-31; 99.3% in the assay on OVCAR-5. The activity at 10 µM in the assay with M14 stood at 94.2%; in the assay on SK-MEL-28 it was 103%; with PC-3, 103%; in the assay with MOLT-4, 91.5%; in the assay with HL-60(TB), 100%; in the assay on NCI-H226, 108%. In addition, the activity at 10 µM was 91.5% with SNB-19; 98.1% in the assay with HCT-15; 99.9% in the assay on SF-268; 101% in the assay with KM12; 99.5% with OVCAR-4; 94.2% in the assay with SF-539. Moreover, the activity at 10 µM is 97.3% in the assay with HT29, 82.2% in the assay with 786-0, 106% in the assay with OVCAR-8 and 87.1% with SR.

Turning to `Cc1nn(-c2ccc(Br)cc2)c2ncnc(Nc3ccc(OCc4c(-c5ccccc5)no[n+]4[O-])cc3)c12` [6g, 3-((4-((1-(4-bromophenyl)-3-methyl-1H-pyrazolo[3,4-d]pyrimidin-4-yl)amino)phenoxy)methyl)-4-phenyl-1,2,5-oxadiazole 2-oxide], the activity at 10 µM with BT-549 is 104%; in the assay on SN12C it was 91.3%; with SK-MEL-2 it was 101%; with U251, 102%; with UO-31, 81.5%; in the assay with OVCAR-5, 99.3%. Besides, the activity at 10 µM with M14 came out at 94%; in the assay with SK-MEL-28, 99.5%; in the assay with PC-3, 90.9%; with MOLT-4 it was 97.7%; with HL-60(TB), 115%; in the assay on NCI-H226 it was 89.9%. Also, the activity at 10 µM turned out to be 99.2% in the assay on SNB-19; 97.2% in the assay with HCT-15; 104% with SF-268; 98.6% with KM12; 95.7% with OVCAR-4; 90.4% with SF-539. For the same compound, the activity at 10 µM in the assay with HT29 was determined as 101%; in the assay with 786-0, 122%; with OVCAR-8, 93.9%; with SR it was 121%.

For `Cc1nc(Nc2ccc(OCc3c(-c4ccccc4)no[n+]3[O-])cc2)c2c(C)nn(-c3ccc(Br)cc3)c2n1` [6h, 3-((4-((1-(4-bromophenyl)-3,6-dimethyl-1H-pyrazolo[3,4-d]pyrimidin-4-yl)amino)phenoxy)methyl)-4-phenyl-1,2,5-oxadiazole 2-oxide], the activity at 10 µM with BT-549 was found to be 91.1%; in the assay on SN12C it was 96.4%; in the assay with SK-MEL-2 it was 96.9%; in the assay on U251 it was 96.4%; in the assay with UO-31, 74%; with OVCAR-5 it was 102%. Further, the activity at 10 µM in the assay on M14 amounted to 89.5%; in the assay on SK-MEL-28 it was 101%; in the assay with PC-3, 67.4%; with MOLT-4, 87.6%; in the assay on HL-60(TB) it was 70.8%; with NCI-H226, 109%. Further, the activity at 10 µM was 94.5% in the assay with SNB-19; 79% in the assay on HCT-15; 94.7% with SF-268; 97.7% in the assay on KM12; 97% in the assay on OVCAR-4; 96.1% in the assay with SF-539. Besides, the activity at 10 µM turned out to be 90% in the assay on HT29, 107% with 786-0, 102% in the assay with OVCAR-8 and 72% with SR.

Consider `Cc1nn(-c2ccccc2)c2nc(C(F)(F)F)nc(Nc3ccc(NCc4c(-c5ccccc5)no[n+]4[O-])cc3)c12` [12a, 3-(((4-((3-methyl-1-phenyl-6-(trifluoromethyl)-1H-pyrazolo[3,4-d]pyrimidin-4-yl)amino)phenyl)amino)methyl)-4-phenyl-1,2,5-oxadiazole 2-oxide], for which the activity at 10 µM was 103% in the assay with BT-549; 77.7% in the assay on SN12C; 106% in the assay with SK-MEL-2; 69.9% in the assay on U251; 57.5% in the assay on UO-31; 93.7% with OVCAR-5. Also, the activity at 10 µM in the assay with M14 worked out at 68.7%; with SK-MEL-28, 92.4%; with PC-3, 45.6%; in the assay with MOLT-4, 56.4%; with HL-60(TB), 77.2%; with NCI-H226, 85.6%. Further, the activity at 10 µM in the assay with SNB-19 was determined as 88%; in the assay with HCT-15 it was 42%; in the assay on SF-268, 68.6%; with KM12, 56.7%; with OVCAR-4, 70.8%; with SF-539, 78.1%. The activity at 10 µM in the assay with HT29 amounted to 61.5%; in the assay on 786-0, 92.4%; with OVCAR-8, 89.7%; in the assay on SR, 58.7%.

As to `[O-][n+]1onc(-c2ccccc2)c1CNc1ccc(Nc2nc(C(F)(F)F)nc3c2cnn3-c2ccc(Br)cc2)cc1` [12b, 3-(((4-((1-(4-bromophenyl)-6-(trifluoromethyl)-1H-pyrazolo[3,4-d]pyrimidin-4-yl)amino)phenyl)amino)methyl)-4-phenyl-1,2,5-oxadiazole 2-oxide], the activity at 10 µM was found to be 97.5% in the assay on BT-549; 58% in the assay with SN12C; 99.8% with SK-MEL-2; 73.2% in the assay on U251; 43.4% in the assay on UO-31; 77.2% in the assay with OVCAR-5. Besides, the activity at 10 µM in the assay with M14 amounted to 68.2%; with SK-MEL-28 it was 89.2%; in the assay with PC-3, 48.2%; in the assay on MOLT-4, 47%; with HL-60(TB) it was 79.8%; in the assay with NCI-H226, 77%. Further, the activity at 10 µM with SNB-19 turned out to be 78.9%; in the assay on HCT-15, 38.1%; in the assay on SF-268 it was 65%; with KM12, 41.2%; in the assay on OVCAR-4, 78.5%; in the assay on SF-539 it was 68.3%. Also, the activity at 10 µM in the assay with HT29 came out at 43.9%; in the assay with 786-0, 67.2%; in the assay on OVCAR-8, 72.8%; in the assay on SR it was 43.5%.

As to `Cc1nn(-c2ccc(Br)cc2)c2nc(C(F)(F)F)nc(Nc3ccc(NCc4c(-c5ccccc5)no[n+]4[O-])cc3)c12` [12c, 3-(((4-((1-(4-bromophenyl)-3-methyl-6-(trifluoromethyl)-1H-pyrazolo[3,4-d]pyrimidin-4-yl)amino)phenyl)amino)methyl)-4-phenyl-1,2,5-oxadiazole 2-oxide], the activity at 10 µM is 97.4% in the assay with BT-549; 76.2% with SN12C; 104% in the assay on SK-MEL-2; 54.1% in the assay on U251; 50.3% in the assay on UO-31; 89.5% in the assay with OVCAR-5. Also, the activity at 10 µM in the assay with M14 is 71.9%; with SK-MEL-28, 89.5%; with PC-3, 47%; with MOLT-4 it was 60.3%; with HL-60(TB), 83.2%; in the assay on NCI-H226, 75%. In addition, the activity at 10 µM in the assay on SNB-19 came to 84.1%; with HCT-15, 34.6%; in the assay on SF-268 it was 73.2%; in the assay with KM12 it was 74.3%; in the assay with OVCAR-4 it was 81.3%; with SF-539, 59.4%. Also, the activity at 10 µM with HT29 amounted to 70.4%; in the assay with 786-0 it was 88.1%; with OVCAR-8, 75.8%; with SR, 55.5%.
